Values joined by “and” are separate entries in the source; they are usually repeats but may differ in a detail not shown here. Equal entries are not always repeated.
Tests used:
[1] = in subjects; cited from earlier work
Leukemic blasts = assay: Minimal residual disease (MRD) evaluated by flow cytometry on bone marrow samples; assay type: in vivo, human
Procedure: FIG. 1A. Minimal residual disease (MRD) evaluated by flow cytometry. All patients were monitored for CD22 expression before treatment and then for phenotypic MRD. Leukemic blasts were evaluated using a 8 colors panel including antibodies to CD45, CD19, CD10, CD34, CD38, CD58, CD20 and CD22. MRD was assessed, concomitantly to responses, between 4 and 6 weeks after beginning the salvage regimen using flow cytometry (FACS CANTO II, BD, Biosciences, San Jose, Calif.) performed on bone marrow samples. Two different anti-CD22 antibodies were used. The RFB4 antibody (PE conjugated, Invitrogen, Camarillo, Calif.) and epratuzumab bind competitively to CD22, meaning that in the presence of epratuzumab, RFB4 binding is blocked. By contrast, the SHCL-1 antibody (PE or PerCp-Cy5.5 conjugated, BD Biosciences, San Jose, Calif.) binds to a non-crossblocking epitope and can be used to assess the modulation of the CD22 antigen on the blasts surface. […] Case 1: An example of positive MRD. Leukemic blasts were both CD22-RFB4 and CD22-SHCL-1 positive before treatment. After treatment, the percentage of blasts is estimated at 0.05%.
FIG. 1B. Minimal residual disease (MRD) evaluated by flow cytometry. All patients were monitored for CD22 expression before treatment and then for phenotypic MRD. Leukemic blasts were evaluated using a 8 colors panel including antibodies to CD45, CD19, CD10, CD34, CD38, CD58, CD20 and CD22. MRD was assessed, concomitantly to responses, between 4 and 6 weeks after beginning the salvage regimen using flow cytometry (FACS CANTO II, BD, Biosciences, San Jose, Calif.) performed on bone marrow samples. Two different anti-CD22 antibodies were used. The RFB4 antibody (PE conjugated, Invitrogen, Camarillo, Calif.) and epratuzumab bind competitively to CD22, meaning that in the presence of epratuzumab, RFB4 binding is blocked. By contrast, the SHCL-1 antibody (PE or PerCp-Cy5.5 conjugated, BD Biosciences, San Jose, Calif.) binds to a non-crossblocking epitope and can be used to assess the modulation of the CD22 antigen on the blasts surface. […] Case 2: An example of “negative” MRD. Leukemic blasts (CD10/CD20 negative) are both CD22-RFB4 and CD22-SHCL-1 positive before treatment. After treatment, MRD was <10^−5.

CD22 = CD22 expression on blasts after treatment, flow cytometry with RFB4 and SHCL-1 anti-CD22 antibodies; assay type: cell-based, human; details: non-responders and three patients with detectable MRD
Procedure: (§1) FIG. 1A. Minimal residual disease (MRD) evaluated by flow cytometry. All patients were monitored for CD22 expression before treatment and then for phenotypic MRD. Leukemic blasts were evaluated using a 8 colors panel including antibodies to CD45, CD19, CD10, CD34, CD38, CD58, CD20 and CD22. MRD was assessed, concomitantly to responses, between 4 and 6 weeks after beginning the salvage regimen using flow cytometry (FACS CANTO II, BD, Biosciences, San Jose, Calif.) performed on bone marrow samples. Two different anti-CD22 antibodies were used. The RFB4 antibody (PE conjugated, Invitrogen, Camarillo, Calif.) and epratuzumab bind competitively to CD22, meaning that in the presence of epratuzumab, RFB4 binding is blocked. […]
as §1, with “1B.” for “1A.”, “samples.” for “samples. Two different anti-CD22 antibodies were used. The RFB4 antibody (PE conjugated, Invitrogen, Camarillo, Calif.) and epratuzumab bind competitively to CD22, meaning that in the presence of epratuzumab, RFB4 binding is blocked.”

[2] = test system: relapsed/refractory CD22+B-ALL; assay: Prospective Phase 2 study of epratuzumab added to vincristine and dexamethasone (salvage chemoimmunotherapy); assay type: in vivo, human
Procedure: Here, we have evaluated the addition of epratuzumab (hLL2, 360 mg/m^2/d iv on days 1, 8, 15, and 22) to the combination of vincristine (2 mg iv, days 1, 8, 15 and 22) and dexamethasone (40 mg/d po, days 1, 8, 15, and 22) in patients >55 years old, with relapsed/refractory CD22+B-ALL. Dexamethasone was administered before epratuzumab administration+paracetamol 1 g as prophylaxis in order to prevent epratuzumab infusion reactions. Also, intrathecal injections of methotrexate 15 mg, aracytine 40 mg, and depomedrol 40 mg were recommended on days 1 and 8.
This prospective Phase 2 study was conducted at 6 French centers and was approved by the Brest ethical committee and the clinical trial department of the “Agence Française de Sécurité Sanitaire des Produits de Santé” (AFSSAPS). This trial is registered as NCT01219816. Epratuzumab was supplied by Immunomedics, Inc. (Morris Plains, N.J., USA). Written informed consent was obtained from each patient.
The main objective of the study was the CR rate defined by patients reaching CR+CR without platelets recovery (CRi). CR was defined as <5% marrow blasts, neutrophils >1×10^9/L, platelets >100×10^9/L and no evidence of extramedullary disease. CRi was defined similarly but without recovery of platelets counts. Partial response (PR) was defined as a decrease of >50% of blasts in the bone marrow.
(§2) Responses were evaluated between 4 and 6 weeks post-salvage regimen. Patients in response (CR, CRi or PR) were allowed to receive a second cycle as consolidation. Toxicity was evaluated according to the NCI-CTC criteria version 4. Cytologic, phenotypic, karyotype and BCR-ABL1 (for Ph+B-ALL) molecular analyses were performed on blood samples and/or BM aspirates by standard methods.
Over a three year period, 26 patients were enrolled. One case was excluded because of progression before receiving the treatment, while 2 younger patients were inappropriately included (person in fourth relapse and a person with refractory second relapse). All the 25 treated patients were considered for analysis.

[3] = Toxicity evaluated according to the NCI-CTC criteria version 4; assay type: in vivo, human
Procedure: as §2

[4] = combination with vincristine and dexamethasone, 25 treated patients
[5] = combination with vincristine and dexamethasone, of 25 treated patients
[6] = combination with vincristine and dexamethasone, six Ph+B-ALL patients
[7] = combination with vincristine and dexamethasone, unclear etiology

For “veltuzumab: humanized IgG1 antibody against CD20”, the “immunogenicity compared with rituximab” value [1] is given as “less immunogenic”.

With “epratuzumab: anti-CD22 humanized antibody (Immunomedics, Inc.); given here with vincristine and dexamethasone” the “percentage of blasts after treatment” value (Leukemic blasts; FIG. 1A, Case 1, example of positive MRD) was 0.05%, the MRD after treatment (Leukemic blasts; FIG. 1B, Case 2, example of negative MRD) was < 10^−5 and the “number of CR/CRi patients with undetectable MRD” value (Leukemic blasts; combination with vincristine and dexamethasone, 5 CR/CRi patients) was 2. The “MRD evaluated by cytometry, individual responder patient” value (Leukemic blasts; combination with vincristine and dexamethasone, CR/CRi patient with detectable MRD) was 1.2%, the “MRD evaluated by cytometry, individual responder patients” value (Leukemic blasts; combination with vincristine and dexamethasone, CR/CRi patients with detectable MRD) was 5×10^−4 and 7×10^−3 and the “targeting of CD22 on residual blasts (RFB4 negative, SHCL-1 positive)” value (CD22) was “persistent targeting of epratuzumab on blasts without loss of the CD22/epratuzumab complex from the cell surface”. For the same substance, the “CR+CRi rate” value [2, 4] was 20%, the PR rate [2, 4] was 20% and the “patients who died during treatment due to progression of the disease” value [2, 4] was “Two”. For the same substance, the “number of patients with CR” value [2, 5] was 4, the “number of patients with CRi” value [2, 5] was 1 and the “number of patients with PR” value [2, 5] was 5. The median leukemia-free survival ([2]; combination with vincristine and dexamethasone, patients achieving CR/CRi, range 1-8) was 3.8 months, the “number of patients with CR among Ph+B-ALL patients” value [2, 6] was 2 and the “number of patients with PR among Ph+B-ALL patients” value [2, 6] was 1. The “1-year OS” value ([2]; combination with vincristine and dexamethasone, whole cohort N=25, estimated) was 13+7%, the “median overall survival (OS)” value ([2]; combination with vincristine and dexamethasone, whole cohort N=25, range 0.5-43) was 4 months and the overall response rate ([2]; epratuzumab 360 mg/m2/d iv + vincristine 2 mg iv + dexamethasone 40 mg/d po, days 1, 8, 15, 22, 25 treated patients, evaluated 4-6 weeks post-salvage) was 40%. The “tolerability of salvage regimen” value ([3]; combination with vincristine and dexamethasone, large majority of grade 3/4 toxicities were expected pancytopenia) was “generally tolerated well”, the “grade-3 renal toxicity, number of cases” value [3, 7] was “One” and the “grade-4 hypertriglyceridemia, number of cases” value [3, 7] was “one”. For the same substance, the “grade-3 allergic toxicity, number of cases” value ([3]; related to the first epratuzumab infusion) was “One”.

Reference: patent US20160304611A1, “COMBINATION THERAPY FOR TREATING ADULT PATIENTS WITH RELAPSED/REFRACTORY CD22+ B-CELL ACUTE LYMPHOBLASTIC LEUKEMIA” (Immunomedics, Inc., priority 2015, published 2016)
